From publication PMC6021035, “Insights into biological activity of ureidoamides with primaquine and amino acid moieties” (Journal of Enzyme Inhibition and Medicinal Chemistry, 2018)
In brackets after ≈: the same amount, converted by molar mass. Read-outs that look alike come from different tables or passages of the source.

Assays:
[1] = Inhibition of linoleic acid peroxidation (LP), AAPH-initiated; parameters: tested at 100 µM; conditions: 100 μΜ, 37 °C
Description: To initiate lipid peroxidation, the free radical AAPH was used[10]. The final solution in the UV cuvette consisted of 10 µl sodium linoleate solution (c = 16 mM) and 0.93 ml phosphate buffer pH 7.4 (c = 50 mM). Afterwards, 10 µl of the tested compound solution in DMSO (final concentration 0.1 mM) and 50 µl of AAPH solution (c = 40 mM) were added. The experiment was performed at 37 °C under air. Oxidation of linoleic acid sodium salt was monitored at 234 nm. The assay was repeated at least in triplicate and the standard deviation of absorbance was less than 10% of the mean. Trolox was used under the same experimental conditions as a reference compound.

S. aureus strains = experiment: MIC determination, S. aureus strains; format: cell-based, Staphylococcus aureus; conditions: for MIC: Staphylococcus aureus, S. aureus strains, lowest value quoted in text; for MIC range: tested Staphylococcus spp.
Description: Before analysis, compounds 5a–f were dissolved in 96% ethanol in a concentration of 2 mg/ml as stock solutions. Inoculums were prepared with fresh cultures of microbial strains, cultured on tryptic-soy agar or Sabouraud 2% (m/v) dextrose agar for 18 h (48–72 h for fungi) at 30 °C with physiological saline containing approximately […]. Inoculum density (0.5 McFarland units) was adjusted with a bio Mériex (France) densitometer. Minimum inhibitory concentration (MIC) was determined by the twofold micro-dilution method in Mu¨ller–Hinton broth for bacterial strains and RPMI 1640 + 2% m/v dextrose for fungi according to the EUCAST recommendations in a sterile 96-well flat-bottom plastic tissue culture plate. MIC was determined using a linear regression curve after incubation of compounds and reading the optical density at 570 nm using an iEMS microplate reader. […] All tests were performed in triplicate and expressed as the mean.

[2] = system: Staphylococcus aureus ATCC 6538; experiment: Minimum biofilm eradication assay; format: cell-based
Description: (§1) We tested the susceptibility of different bacterial and yeast strains to compounds 5a–f by determining the minimum biofilm eradication concentration (MBEC). The test was performed in a sterile 96-well flat-bottom plastic tissue culture plate (TPP, Switzerland). Each well was filled with 100 µl of bacterial (10^7 CFUs/ml) or yeast (5 × 10^6 CFUs/ml) suspension. When the possibility of inhibition of yeast biofilm formation was tested, the wells were pre-treated with FBS (250 µl per well). Negative controls contained broth only. Positive controls were performed using standard antibacterial and antifungal drugs gentamycin and amphotericin B, respectively. The plates were covered and incubated aerobically for 24 h (bacteria) or 48 h (yeast) at 37 °C. Following the incubation period, each well was aspirated and washed three times with 250 µl of PBS and vigorously shaken in order to remove all non-adherent bacteria/yeast. The remaining attached cells were fixed with methanol (15 min) and the plates were left to dry overnight. The formed biofilm was stained with crystal violet (1%, 5 min). Excess stain was rinsed by placing the plate under running tap water and the plates were left to dry for 24 h. Adherent cells were resolubilized with acetic acid (33%, v/v). The optical density of each well was measured at 570 nm using a Multiscan plate reader. The MBEC value represents the lowest compound dilution at which microorganisms fail to grow.

[3] = system: Staphylococcus aureus ATCC 25213; experiment: Minimum biofilm eradication assay; format: cell-based
Description: as §1

[4] = system: Candida albicans ATCC 10231; experiment: Minimum biofilm eradication assay; format: cell-based; conditions: ATCC10231, 48 h, read-out: MBEC
Description: as §1

[5] = system: Escherichia coli ATCC 10536; experiment: Minimum biofilm eradication assay; format: cell-based
Description: as §1

[6] = system: Candida krusei ATCC 14243; experiment: Minimum biofilm eradication assay; format: cell-based; conditions: Pichia kudriavzevii, ATCC14243, 48 h, read-out: MBEC
Description: as §1

[7] = system: Enterococcus faecalis ATCC 29212; experiment: Minimum biofilm eradication assay; format: cell-based
Description: as §1

[8] = system: Pseudomonas aeruginosa ATCC 27853; experiment: Minimum biofilm eradication assay; format: cell-based
Description: as §1

[9] = system: Candida albicans ATCC 90028; experiment: Minimum biofilm eradication assay; format: cell-based; conditions: ATCC90028, 48 h, read-out: MBEC
Description: as §1

Candida kefyr ATCC 2512 = experiment: Minimum biofilm eradication assay; format: cell-based; conditions: Kluyveromyces marxianus, ATCC2512, 48 h, read-out: MBEC
Description: as §1

[10] = system: Pseudomonas aeruginosa ATCC 9027; experiment: Minimum biofilm eradication assay; format: cell-based
Description: as §1

[11] = system: Escherichia coli ATCC 8739; experiment: Minimum biofilm eradication assay; format: cell-based
Description: as §1

[12] = system: Candida parapsylosis ATCC 22019; experiment: Minimum biofilm eradication assay; format: cell-based
Description: as §1

[13] = system: Candida tropicalis ATCC 750; experiment: Minimum biofilm eradication assay; format: cell-based; conditions: ATCC750, 48 h, read-out: MBEC
Description: as §1

[14] = In vitro haemolytic activity; format: cell-based; conditions: male, 4% human erythrocytes, read-out: Haemolysis (%); for hemolysis at 1 h, 50 µg/ml: pH 7, 50 μg/ml; for hemolysis at 1 h, 100 µg/ml: pH 7, 100 μg/ml; for hemolysis at 1 h, 200 µg/ml: pH 7, 200 μg/ml
Description: Then, 4% (v/v) of fresh human erythrocyte solution (hErc) was prepared using a PBS pH 7.0 solution. A series of diluted compounds from 200 to 50 µg/ml were prepared in a total volume of 1 ml with hErc solution. […] Absorbance of the supernatant (200 µl) was recorded at 540 nm using an iEMS microplate reader. The 0.1% (v/v) solution of Triton X100 served as a positive control (as total lysis of hErc), and intact hErc served as a negative control. […] All tests were performed in triplicate and the results were expressed as haemolysis percentage (mean ± SD). Percentage of haemolysis was calculated using the following equation: haemolysis %=Asample-Anc/Apc-Anc×100 where Asample was absorbance of the tested compound, Anc was absorbance of the negative control (intact hErc) and Apc was absorbance of the positive control treated with 0.1% TritonX100. In statistical calculations, p values below 0.05 were considered significant throughout the test. For comparison of mean values, one-way ANOVA with Dunnet’s post-test was used.

E. coli (both strains) = experiment: Minimum biofilm eradication assay, E. coli both strains; format: cell-based, Escherichia coli
Description: as §1, with “The MBEC value represents the lowest compound dilution at which microorganisms fail to grow.” left out

[15] = 4% (v/v) fresh human erythrocyte suspension

Row | MIC (S. aureus strains) [µg/mL] | MIC range (S. aureus strains) [µg/mL] | melting point [°C] | SMILES | LP inhibition (%) ± SD [1] [%] | MBEC [2] [µg/mL] | MBEC [3] [µg/mL] | minimal effective concentration [4] [µg/mL] | MBEC [5] [µg/mL] | minimal effective concentration [6] [µg/mL] | MBEC [7] [µg/mL] | MBEC [8] [µg/mL] | minimal effective concentration [9] [µg/mL] | minimal effective concentration (Candida kefyr ATCC 2512) [µg/mL] | MBEC [10] [µg/mL] | MBEC [11] [µg/mL] | MBEC [12] [µg/mL] | minimal effective concentration [13] [µg/mL] | hemolysis at 1 h, 50 µg/ml [14, 15] [%] | hemolysis at 1 h, 100 µg/ml [14, 15] [%] | hemolysis at 1 h, 200 µg/ml [14, 15] [%] | further results
1 | 6.5 (≈ 10.2 µM) | 12.5 to 25 | 180 to 183 | COc1cc(NC(C)CCCNC(=O)NC(C(=O)NC(c2ccccc2)c2ccccc2)c2ccc(Cl)cc2)c2ncccc2c1 (stereo not drawn) [Compound 5d, 2–(4-chlorophenyl)-N-(diphenylmethyl)-2-[({4-[(6-methoxyquinolin-8-yl)amino]pentyl}carbamoyl)amino]acetamide] | 90 ± 4.5 | 25 | 25 | 50 | 25 | > 100 | >100 | 50 | 25 | 25 | 50 | 25 | >100 | > 100 | 2.56 ± 0.05 | 2.94 ± 0.04 | 3.07 ± 0.05 | 
2 | 6.5 (≈ 11.2 µM) | 6.5 to 15 | 184.5 to 185.5 | COc1cc(NC(C)CCCNC(=O)NC(CC(C)C)C(=O)NC(c2ccccc2)c2ccccc2)c2ncccc2c1 (stereo not drawn) [Compound 5a, N-(diphenylmethyl)-2-[({4-[(6-methoxyquinolin-8-yl)amino]pentyl}carbamoyl)amino]-4-methylpentanamide] | 15 ± 0.7 | 12.5 | 25 | > 100 | 6.25 | > 100 | >100 | 25 | 25 | > 100 | 60 | 6.25 | >100 | > 100 | 3.14 ± 0.04 | 4.03 ± 0.03 | 4.24 ± 0.07 | 
3 |  |  |  | COc1cc(NC(C)CCCN)c2ncccc2c1 (stereo not drawn) [PQ, 8-[(4-amino-1-methylbutyl)amino]-6-methoxyquinoline, reference compound] |  | 50 | >100 | > 100 | 25 | > 100 | >100 | 50 | > 100 | 50 | 70 | 25 | 50 | > 100 |  |  |  | MBEC (E. coli (both strains)): 25 µg/mL; hemolysis at 1 h, 50 µg/ml [14]: 2.08 ± 0.05%; hemolysis at 1 h, 100 µg/ml [14]: 2.53 ± 0.04%; hemolysis at 1 h, 200 µg/ml [14]: 3.12 ± 0.07%
4 |  |  |  | COc1cc(NC(C)CCCNC(=O)NC(C(=O)N(C)C(c2ccccc2)c2ccccc2)c2ccccc2)c2ncccc2c1 (stereo not drawn) [Compound 5b, N-(diphenylmethyl)-2-[({4-[(6-methoxyquinolin-8-yl)amino]pentyl}carbamoyl)amino]-N-methyl-2-phenylacetamide] | 92 ± 3.2 | >100 | >100 | 50 | 12.5 | > 100 | >100 | >100 | 50 | > 100 | >100 | 12.5 | >100 | > 100 | 3.13 ± 0.05 | 3.94 ± 0.05 | 4.04 ± 0.08 | 
5 |  |  |  | COc1ccc(C(=NNC(=O)C(NC(=O)NCCCC(C)Nc2cc(OC)cc3cccnc23)c2ccc(Cl)cc2)c2ccccc2)cc1 (stereo not drawn) [Compound 5f, 3-[(4-chlorophenyl)({N'-[(4-methoxyphenyl)(phenyl)methylidene]hydrazinecarbonyl})methyl]-1-{4-[(6-methoxyquinolin-8-yl)amino]pentyl}urea] | 90 ± 3.6 | >100 | >100 | 25 | 12.5 | > 100 | >100 | >100 | 25 | 6.25 | >100 | 6.25 | >100 | > 100 | 3.32 ± 0.05 | 3.66 ± 0.05 | 4.03 ± 0.09 | 
6 |  |  |  | COc1cc(NC(C)CCCNC(=O)NC(C(=O)NC(c2ccccc2)c2ccc(Cl)cc2)c2ccccc2)c2ncccc2c1 (stereo not drawn) [Compound 5c, N-[(4-chlorophenyl)(phenyl)methyl]-2-[({4-[(6-methoxyquinolin-8-yl)amino]pentyl}carbamoyl)amino]-2-phenylacetamide] | 99 ± 2.8 | >100 | >100 | 50 | 6.25 | > 100 | >100 | 25 | 25 | > 100 | 50 | 6.25 | >100 | > 100 | 3.06 ± 0.05 | 4.26 ± 0.07 | 4.89 ± 0.13 | 
